# Values joined by “and” are separate entries in the source; they are usually repeats but may differ in a detail not shown here. Equal entries are not always repeated.
# What was measured:
# pKa measurement = type: physicochemical
# Citrobacter species = test: MIC at pH 3.5, CLSI, Mueller-Hinton broth; type: cell-based; settings: 5 isolates
# Experimental: (§1) Bacterial strains evaluated in this study include Escherichia coli, Klebsiella spp, Serratia marcescens, Proteus mirabilis/vulgaris, Citrobacter spp, Providencia spp, Morganella morganii, Pseudomonas aeruginosa, Staphylococcus aureus (MRSA only), and Enterococcus faecalis. Nu-8 test solutions are adjusted to pH 3.5 with citric acid, and […] is evaluated per the CLSI methods in Mueller-Hinton broth supplemented accordingly to facilitate growth of specific strains.
# Enterococcus faecalis = test: MIC at pH 3.5, CLSI, Mueller-Hinton broth; type: cell-based; settings: 5 isolates
# Experimental: as §1
# Escherichia coli = test: MIC at pH 3.5, CLSI, Mueller-Hinton broth; type: cell-based; settings: 5 isolates
# Experimental: as §1
# Klebsiella pneumoniae = test: MIC at pH 3.5, CLSI, Mueller-Hinton broth; type: cell-based; settings: 5 isolates
# Experimental: as §1
# Morganella morganii = test: MIC at pH 3.5, CLSI, Mueller-Hinton broth; type: cell-based; settings: 5 isolates
# Experimental: as §1
# [1] = tested on: Proteus mirabilis/vulgaris; test: MIC at pH 3.5, CLSI, Mueller-Hinton broth; type: cell-based; settings: 5 isolates
# Experimental: as §1
# Providencia species = test: MIC at pH 3.5, CLSI, Mueller-Hinton broth; type: cell-based; settings: 5 isolates
# Experimental: as §1
# Pseudomonas aeruginosa = test: MIC at pH 3.5, CLSI, Mueller-Hinton broth; type: cell-based; settings: 20 isolates
# Experimental: as §1
# Serratia marcescens = test: MIC at pH 3.5, CLSI, Mueller-Hinton broth; type: cell-based; settings: 5 isolates
# Experimental: as §1
# [2] = tested on: Staphylococcus aureus (MRSA); test: MIC at pH 3.5, CLSI, Mueller-Hinton broth; type: cell-based; settings: 20 isolates
# Experimental: as §1
# [3] = tested on: Aspergillus fumigatus (ATCC13073); test: Neutropenic lung infection model in mice, lung fungal burden and mortality (Example 24); type: in vivo, BALB/c mice
# Experimental: Neutropenic, BALB/c female mice, all of which were from 6 to 8 weeks of age, were infected intranasally with Aspergillus fumigatus (ATCC13073) at inoculum strengths of ˜1×10^6 conidia/animal (Part A) and ˜1×10^4 conidia/animal (Part B). Twenty four hours after infection, animals were treated by aerosol route with vehicle and Nu-8 (10% solution) for one, two, three, and five days. Two hours following treatment, groups of mice were terminated on days 1, 3, and 5, and lungs were collected to determine fungal load. A similar procedure was followed at inoculum strengths of ˜1×10^3 conidia/animal (Part C) and ˜1×10^2 conidia/animal (Part D).
# This experiment was performed in four parts: Part A (infection with 1×10^6 conidia/animal), Part B (infection with 1×10^4 conidia/animal), Part C (infection with 1×10^3 conidia/animal), and Part D (infection with 1×10^2 conidia/animal). The mice were separated into cohorts in accordance with Table 13 (Part A), Table 14 (Part B), Table 15 (Part C), and Table 16 (Part D).
# On day −4 (four days before the date of infection), each mouse was dosed with a single intraperitoneal injection of cyclophosphamide equivalent to 150 mg/kg and returned to its cage. On day −1 (one day before infection) each mouse received a dose equivalent to 100 mg/kg of cyclophosphamide. Neutropenia was confirmed with differential leukocyte count on day 0.
# One week before infection, an aliquot from the glycerol stocks of Aspergillus fumigatus (ATCC13073) was taken and grown on Potato Dextrose Agar (PDA) plates for seven days in an incubator at 25° C. After seven days, conidia were collected by scraping the colonies from the PDA plate with a sterile loop and washing the surface of the plate with sterile distilled water. The conidial suspension was collected into a sterile tube and filtered through 10 layers of sterile cheese (muslin) cloth/Whatman filter paper to remove hyphal fragments from the spore suspension. The optical density of the filtered suspension was adjusted to an equivalent of ˜1×10^8 conidia/ml. The inoculum was serially diluted in normal saline and viability was checked by hemocytometer.
# Animals were divided into different groups as specified in the experimental design (Tables 13-16). Infections were conducted in a biological safety cabinet, with appropriate personnel protection. Mice were placed into an induction chamber and anesthesia was induced by exposing the animals to 3%-5% Isoflurane in an oxygen flow set at approximately 1 liter per minute (LPM). Once the animals were in a sufficiently deep plane of anesthesia, they were removed and infected. Infection was done by injection of 0.02 ml (containing ˜1×10^8 CFU/ml for Part A, ˜1×10^6 CFU/ml for Part B, ˜1×10^5 CFU/ml for Part C, and ˜1×10^4 CFU/ml for Part D). 10 μl was instilled into each nostril of the anesthetized animal (˜2×10^6 CFU/animal for Part A, ˜2×10^4 CFU/animal for Part B, ˜2×10^3 CFU/animal for Part C, ˜2×10^2 CFU/animal for Part D) using a 10 μl pipette. A gentle shaking/mixing of inoculum between two animals was followed for uniform distribution.
# The vehicle used for the test compound was saline (0.9% NaCl adjusted to pH 3.5 with citric acid). To make 10% solution, 15 g Nu-8 was weighed and dissolved in 145 ml of the saline and the pH of the solution was adjusted to 3.5 with citric acid (0.1 M) in a final volume of 150 ml.
# Treatment began twenty four hours after infection. Test formulations were administered by aerosol route with nose only apparatus connected to a nebulizer (Omron Ne-C28 Compressor Nebulizer with a volume capacity of 15 ml, Particle size 3 μm, Nebulization rate: 0.5 ml/min and Aerosol output rate: 0.09 ml/min). Test formulations were placed into the nebulizer fluid cup; animals were placed in the nose-only apparatus, and the entire system was placed inside a Class II Biosafety Cabinet. […]
# [4] = Body weight in the Acinetobacter baumannii lung infection model (Example 25); type: in vivo, BALB/c mice
# [5] = Nu-8 (10%), 3 doses, once daily for 3 days
# [6] = Nu-8 (10%), 5 doses, once daily for 5 days
structure (smiles),measurement,setting,value
"CCCCOP(=O)(O)OC[C@H]1O[C@@H](n2ccc(N)nc2=O)C[C@@H]1OP(=O)(O)OCCCC [Nu-8, sodium ((2R,3S,5R)-5-(4-amino-2-oxopyrimidin-1(2H)-yl)-3-((butoxyoxidophosphor-yl)oxy)tetrahydrofuran-2-yl)methyl butyl phosphate]",pKa,pKa measurement,3.20
same,Nu-8 MIC (mg/mL) at pH 3.5,Citrobacter species,18.75-37.5 mg/mL
same,Nu-8 MIC (mg/mL) at pH 3.5,Enterococcus faecalis,4.69-18.75 mg/mL
same,Nu-8 MIC (mg/mL) at pH 3.5,Escherichia coli,37.5 mg/mL
same,Nu-8 MIC (mg/mL) at pH 3.5,Klebsiella pneumoniae,37.5-75 mg/mL
same,Nu-8 MIC (mg/mL) at pH 3.5,Morganella morganii,18.75 mg/mL
same,Nu-8 MIC (mg/mL) at pH 3.5,[1],4.69-18.75 mg/mL
same,Nu-8 MIC (mg/mL) at pH 3.5,Providencia species,9.38-37.5 mg/mL
same,MIC50 at pH 3.5,Pseudomonas aeruginosa,18.75 mg/mL
same,MIC90 at pH 3.5,Pseudomonas aeruginosa,18.75 mg/mL
same,Nu-8 MIC (mg/mL) at pH 3.5,Pseudomonas aeruginosa; MIC range,9.38-18.75 mg/mL
same,Nu-8 MIC (mg/mL) at pH 3.5,Serratia marcescens,37.5-75 mg/mL
same,MIC50 at pH 3.5,[2],18.75 mg/mL
same,MIC90 at pH 3.5,[2],37.5 mg/mL
same,Nu-8 MIC (mg/mL) at pH 3.5,[2]; MIC range,9.38-37.5 mg/mL
same,Log10 CFU/g lung,"[3]; Part A, 1×10^6 conidia/animal, 10% aerosol single dose, individual mice",6.16 Log10 CFU/g lung and 5.71 Log10 CFU/g lung and 4.51 Log10 CFU/g lung and 5.41 Log10 CFU/g lung and 5.14 Log10 CFU/g lung and 5.76 Log10 CFU/g lung
same,% Mortality,"[3]; Part A, 10% aerosol, 3 doses, once daily for 3 days, day 3",50% and 50 [day 3] %
same,Log10 CFU/g lung,"[3]; Part A, 10% aerosol, 3 doses, once daily for 3 days, individual surviving mice",4.96 Log10 CFU/g lung and 5.48 Log10 CFU/g lung and 3.23 Log10 CFU/g lung
same,Mean ± SD (Log10 CFU/g lung),"[3]; Part A, 10% aerosol, 3 doses, once daily for 3 days, n = 3",4.56 ± 1.18 Log10 CFU/g lung
same,Log10 CFU/g lung,"[3]; Part A, 10% aerosol, 5 doses, once daily for 5 days, individual surviving mice",4.28 Log10 CFU/g lung and 4.06 Log10 CFU/g lung
same,Mean (Log10 CFU/g lung),"[3]; Part A, 10% aerosol, 5 doses, once daily for 5 days, n = 2",4.17 (n = 2) Log10 CFU/g lung
same,efficacy vs day 1 control and day 3 vehicle controls,"[3]; Part A, day 3 and day 5",marked efficacy
same,efficacy vs vehicle control,"[3]; Part A, single dose (day 1), p>0.05",did not show significant efficacy
same,mean fungal count,"[3]; Part A, treated with Nu-8 (10%) for three days, day 3",4.56 log10 spores/g lung
same,mean fungal count,"[3]; Part A, treatment with Nu-8 (10%), day 5",4.17 log10 spores/g lung
same,Mean ± SD (Log10 spores/g lung),"[3]; Part B, 1×10^4 conidia/animal, 10% aerosol single dose (Table 20 group 3), terminated day 3",4.41±0.29 Log10 spores/g lung
same,Log10 spores/g lung,"[3]; Part B, 1×10^4 conidia/animal, 10% aerosol single dose, terminated day 3, individual mice",3.99 Log10 spores/g lung and 4.72 Log10 spores/g lung and 4.51 Log10 spores/g lung and 4.83 Log10 spores/g lung and 4.23 Log10 spores/g lung and 4.45 Log10 spores/g lung and 4.14 Log10 spores/g lung and 4.34 Log10 spores/g lung
same,Mean ± SD (Log10 spores/g lung),"[3]; Part B, 10% aerosol, 3 doses, once daily for 3 days",4.31±0.29 Log10 spores/g lung
same,Log10 spores/g lung,"[3]; Part B, 10% aerosol, 3 doses, once daily for 3 days, individual mice",4.29 Log10 spores/g lung and 4.45 Log10 spores/g lung and 3.93 Log10 spores/g lung and 4.28 Log10 spores/g lung and 4.34 Log10 spores/g lung and 4.87 Log10 spores/g lung and 4.24 Log10 spores/g lung and 4.03 Log10 spores/g lung
same,Mean ± SD (Log10 spores/g lung),"[3]; Part C, 1×10^3 conidia/animal, 10% aerosol, 3 doses, once daily for 3 days",3.65±0.50 Log10 spores/g lung
same,Log10 spores/g lung,"[3]; Part C, 1×10^3 conidia/animal, 10% aerosol, 3 doses, once daily for 3 days, individual mice",4.30 Log10 spores/g lung and 3.67 Log10 spores/g lung and 3.46 Log10 spores/g lung and 4.05 Log10 spores/g lung and 3.54 Log10 spores/g lung and 2.85 Log10 spores/g lung
same,Mean ± SD (Log10 spores/g lung),"[3]; Part D, 1×10^2 conidia/animal, 10% aerosol, 5 doses, once daily for 5 days",2.49±0.16 Log10 spores/g lung
same,Log10 spores/g lung,"[3]; Part D, 1×10^2 conidia/animal, 10% aerosol, 5 doses, once daily for 5 days, individual mice",2.71 Log10 spores/g lung and 2.23 Log10 spores/g lung and 2.50 Log10 spores/g lung and 2.52 Log10 spores/g lung and 2.44 Log10 spores/g lung and 2.56 Log10 spores/g lung
same,Body Weight (g) Mean ± SD Day 0,[4]; [5],25.0 ± 0.6 g
same,Body Weight (g) Mean ± SD Day 1,[4]; [5],24.3 ± 0.5 g
same,Body Weight (g) Mean ± SD Day 3,[4]; [5],23.7 ± 0.5 g
same,Body Weight (g) Mean ± SD Day 0,[4]; [6],24.8 ± 0.8 g
same,Body Weight (g) Mean ± SD Day 1,[4]; [6],24.0 ± 0.6 g
same,Body Weight (g) Mean ± SD Day 2,"[4]; Nu-8 (10%), 5 doses, once daily for 5 days, Day 2",23.3 ± 0.5 g
same,Body Weight (g) Mean ± SD Day 3,[4]; [6],23.2 ± 0.8 g
same,Body Weight (g) Mean ± SD Day 4,"[4]; Nu-8 (10%), 5 doses, once daily for 5 days, Day 4",23.3 ± 1.0 g
same,Body Weight (g) Mean ± SD Day 5,"[4]; Nu-8 (10%), 5 doses, once daily for 5 days, Day 5",24.0 ± 0.6 g
same,Body Weight (g) Mean ± SD Day 0,"[4]; Nu-8 (10%), single dose",24.8 ± 0.8 g
same,Body Weight (g) Mean ± SD Day 1,"[4]; Nu-8 (10%), single dose",24.0 ± 0.9 g
same,change in mean body weights,[4]; vehicle and treatment groups,Decreases in mean body weights were observed
